Reference: ChEMBL document CHEMBL2321830 (J Med Chem, 2013)
Changes are numbered by the printed parent chain.

What was measured:
[1] = target: T1, Prostaglandin G/H synthase 2 (Mus musculus, UniProt Q05769)
T1 sequence (Q05769 whole entry): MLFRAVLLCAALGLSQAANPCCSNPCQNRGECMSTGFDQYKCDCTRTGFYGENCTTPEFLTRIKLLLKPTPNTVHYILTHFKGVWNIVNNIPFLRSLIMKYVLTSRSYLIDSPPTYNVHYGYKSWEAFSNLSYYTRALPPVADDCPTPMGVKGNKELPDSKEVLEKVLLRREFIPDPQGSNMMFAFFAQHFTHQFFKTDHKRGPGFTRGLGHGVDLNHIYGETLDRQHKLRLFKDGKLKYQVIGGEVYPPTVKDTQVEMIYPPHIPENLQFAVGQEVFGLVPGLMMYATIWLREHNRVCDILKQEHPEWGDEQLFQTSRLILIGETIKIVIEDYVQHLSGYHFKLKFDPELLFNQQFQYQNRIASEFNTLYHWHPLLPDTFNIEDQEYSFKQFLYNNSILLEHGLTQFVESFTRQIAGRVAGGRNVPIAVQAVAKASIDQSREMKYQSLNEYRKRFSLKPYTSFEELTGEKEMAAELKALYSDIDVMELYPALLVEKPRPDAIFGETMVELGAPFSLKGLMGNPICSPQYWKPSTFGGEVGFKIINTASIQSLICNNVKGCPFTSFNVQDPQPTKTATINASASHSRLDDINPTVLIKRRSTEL
Description: Inhibition of wild type mouse COX2 by discontinuous radioactive TLC assay

[2] = target: T2, Prostaglandin G/H synthase 1 (Ovis aries, UniProt P05979)
T2 sequence (P05979 whole entry): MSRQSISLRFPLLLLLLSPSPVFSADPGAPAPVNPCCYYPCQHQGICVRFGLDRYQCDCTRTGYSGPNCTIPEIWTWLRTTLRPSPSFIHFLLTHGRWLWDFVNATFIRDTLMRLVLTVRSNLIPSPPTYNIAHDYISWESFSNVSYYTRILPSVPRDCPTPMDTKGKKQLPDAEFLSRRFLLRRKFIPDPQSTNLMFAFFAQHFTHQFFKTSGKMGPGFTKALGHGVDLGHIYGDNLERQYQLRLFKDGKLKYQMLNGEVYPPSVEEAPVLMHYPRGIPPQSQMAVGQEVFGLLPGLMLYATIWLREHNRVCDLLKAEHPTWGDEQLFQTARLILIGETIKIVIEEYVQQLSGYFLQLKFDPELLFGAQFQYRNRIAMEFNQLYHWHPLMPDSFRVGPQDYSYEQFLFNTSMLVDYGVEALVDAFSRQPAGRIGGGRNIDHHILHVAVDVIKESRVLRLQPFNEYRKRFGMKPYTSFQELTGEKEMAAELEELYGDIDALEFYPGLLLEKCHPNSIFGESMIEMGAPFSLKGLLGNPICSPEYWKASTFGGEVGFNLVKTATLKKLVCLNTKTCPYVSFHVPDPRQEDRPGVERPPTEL
Description: Inhibition of ovine COX1 by discontinuous radioactive TLC assay

[3] = target: T3, Aldo-keto reductase family 1 member C1 (Homo sapiens, UniProt Q04828); assay: Inhibition of human recombinant AKR1C1-mediated NADP+-dependent oxidation of S-(+)-1,2,3,4-tetrahydro-1-naphthol
T3 sequence (Q04828 whole entry): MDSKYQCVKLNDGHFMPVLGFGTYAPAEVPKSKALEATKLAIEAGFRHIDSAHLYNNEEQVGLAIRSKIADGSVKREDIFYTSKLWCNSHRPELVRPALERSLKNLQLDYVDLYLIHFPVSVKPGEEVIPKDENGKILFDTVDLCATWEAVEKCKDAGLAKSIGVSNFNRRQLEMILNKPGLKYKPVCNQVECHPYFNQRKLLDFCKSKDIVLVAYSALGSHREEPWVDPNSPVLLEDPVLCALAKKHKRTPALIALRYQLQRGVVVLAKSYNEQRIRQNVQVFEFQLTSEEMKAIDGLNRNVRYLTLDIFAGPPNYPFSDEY

[4] = target: T4, Aldo-keto reductase family 1 member C3 (Homo sapiens, UniProt P42330); assay: Inhibition of human recombinant AKR1C3-mediated NADP+-dependent oxidation of S-(+)-1,2,3,4-tetrahydro-1-naphthol
T4 sequence (P42330 whole entry): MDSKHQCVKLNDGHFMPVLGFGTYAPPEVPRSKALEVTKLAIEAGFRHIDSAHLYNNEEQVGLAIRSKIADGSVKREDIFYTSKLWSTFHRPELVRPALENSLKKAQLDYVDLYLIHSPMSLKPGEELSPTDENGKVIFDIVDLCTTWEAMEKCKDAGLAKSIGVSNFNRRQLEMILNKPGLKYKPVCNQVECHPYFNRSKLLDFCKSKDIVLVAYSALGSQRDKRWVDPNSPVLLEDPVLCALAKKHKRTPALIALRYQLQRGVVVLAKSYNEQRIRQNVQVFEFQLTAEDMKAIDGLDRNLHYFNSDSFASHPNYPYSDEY

[5] = target: T5, Aldo-keto reductase family 1 member C2 (Homo sapiens, UniProt P52895); assay: Inhibition of human recombinant AKR1C2-mediated NADP+-dependent oxidation of S-(+)-1,2,3,4-tetrahydro-1-naphthol
T5 sequence (P52895 whole entry): T3 sequence (Q04828 whole entry) with T38V, R47H, L54V, C87S, V151M, R170H, Q172L

Structure (SMILES): COc1ccc2c(c1)c(CC(=O)O)cn2C(=O)c1ccc(Cl)cc1
- IC50 [1]: 3.27 µM
- IC50 [2]: 15.3 µM
- IC50 [3]: > 100 µM

Structure (SMILES): CCc1c(CCC(=O)O)n(C(=O)c2ccc(Cl)cc2)c2ccc(OC)cc12
- IC50 [1]: 7 µM

Structure (SMILES): Cc1c(CC(=O)O)c2cc(F)ccc2n1C(=O)c1ccc(Cl)cc1
- IC50 [1]: 0.09 µM
- IC50 [4]: 0.25 µM
- IC50 [2]: 0.49 µM
- IC50 [5]: 6.19 µM
